Entries after “also recorded” stand apart in the source; their conditions may differ.
Key:
SK-MEL-30 cells [1] = experiment: MTS assay, SK-MEL-30; format: cell-based, human; conditions: for cell metabolic activity down-regulated to (MTS): SK-MEL-30, 72 h, strongest effects
Protocol: (§1) Human fibroblast (BJ; Cat# CRL-2522), human pancreatic cancer (PANC-1; Cat# CRL-1469), human breast cancer (MDA-MB-231; Cat# HTB-26); human brain glioma cells (U-118 MG; Cat# HTB-15), human melanoma (SK-MEL-30; Cat# ACC 151) and human colon carcinoma (Caco-2; Cat# HTB-37) were purchased from ATCC (Manassas, VA, USA) or DSMZ (Braunschweig, Germany). The cell lines were routinely maintained in the medium recommended by the manufacturer—MEM, DMEM, or RPMI (Corning, New York, NY, USA) with L-glutamine, 4.5 g/L glucose, and sodium pyruvate and supplemented with 10% FBS for BJ, PANC-1, MDA-MB-231, U-118 MG, and SK-MEL-30 or 20% FBS for Caco-2. All cell lines were cultured in a humidified CO2 incubator at 37 °C. For assays, cells were seeded at a constant density of 5 × 10^3 cells/0.32 cm^2 for Caco-2, PANC-1, MDA-MB-231, U-118 MG, and SK-MEL-30 or 2 × 10^3 cells/0.32 cm^2 for BJ.
(§2) MTS assay was performed as described elsewhere. Cell lines were seeded in a 96-well plate 24 h prior to treatment. Compounds 3a–3i were tested in a 10–500 µM concentration range and treated for 72 h. Next, the MTS solution was added for 3h and incubated at 37 °C. Absorbance was measured at 590 nm and 620 nm wavelengths using a Synergy H1 microplate reader (BioTek Instruments, San Diego, CA, USA).

11β-HSD1 = target: T1, 11β-HSD1 (Homo sapiens, UniProt P28845); experiment: 11β-HSD1 inhibition assay (cortisone to cortisol, human liver microsomes, cortisol ELISA); format: biochemical; conditions: for inhibition at 10 µM: at a concentration of 10 µM; for inhibition at 10 µM / IC50: human liver microsomes; for selectivity 11β-HSD1 versus 11β-HSD2: compared on % inhibition at 10 µM, versus carbenoxolone; for IC50: unit printed in text (b17-b19)
T1 construct: human liver microsomes were used as a source of the 11β‐HSD1 enzyme; tissue XenoTech Lot No.1410013; host or cells: pooled human liver microsomes, mixed gender
Protocol: 11β-Hydroxysteroid dehydrogenase type 1 and type 2 inhibition assays were performed as previously described. For more details, see the Supplementary Materials.
Detailed protocols of enzyme inhibition assays
1. Inhibition of 11β‐HSD Assays […]
tetrasodium salt, phosphate buffer powder, (Sigma‐Aldrich, Poznań, Poland), Pooled human liver microsomes, mixed gender, 1 mL, 20 mg/mL Lot No.1410013 ‐ XenoTech, Cortisol Elisa Ref DkO001 Lot […]
No. L211008799 – (Cloud‐Clone Corp., Wuhan, China), PBS Lot No. H161008 (Pan Biotech, Aidenbach, […]
liver microsomes were used as a source of the 11β‐HSD1 enzyme. Standard 96‐well microplates were filled with a reagent mixture: cortisone/NADPH (20 μ l, to obtain a final concentration of 200 nM / 2 μ M), […]
water. The resulting solution (final volume 100 μ l) was incubated for 2.5 h at 37°C. To stop the reaction, 10 μl of a 100 μM solution of 18β‐glycyrrhetinic acid in PBS was added. Cortisol levels resulting from the reaction were measured using a commercially available ELISA kit.
(§3) Solvents and reagents: 18‐beta‐glycyrrhetinic acid – (Acros Organic, Geel, Belgium), cortisone, NAD cofactor, phosphate buffer powder (Sigma‐Aldrich, Poznań, Poland), Human Kidney Microsomes, […]
(§4) ‐ (DiaMetra, Spello, Italy), Enzyme‐Linked Immunosorbent Assay (ELISA) Kit for 11‐Beta‐ Hydroxysteroid Dehydrogenase Type 2 Lot No. L191113457 ‐ (Cloud‐Clone Corp., Wuhan, China), PBS Lot No. H161008 (Pan Biotech, Aidenbach, Germany). […]
(§5) kidney microsomes were used as a source of the 11β‐HSD2 enzyme. Standard 96‐well microplates were filled with a reagent mixture: cortisol/NAD+ (20 μL, to obtain a final concentration of 200 nM / 2 μM), […]
(§6) The resulting solution (final volume of 100 μL) was incubated for 2.5 h at 37°C. […]
(§7) levels were measured using a commercially available ELISA kit.
(§8) 1.3. Determination of IC50 […]
(§9) conditions described in the sections above. Analogous assays without added inhibitors were performed as controls. The IC₅₀ value, defined as the concentration of inhibitor causing a 50% reduction in cortisol or cortisone, was read directly from the graph.

Caco-2 cells [2] = experiment: MTS assay, Caco-2; format: cell-based, human; conditions: for cell metabolic activity down-regulated to (MTS): Caco-2, 72 h, strongest effects
Protocol: as §1, §2

U-118 MG cells = experiment: MTS assay, U-118 MG; format: cell-based, human; conditions: 72 h
Protocol: as §1, §2

MDA-MB-231 cells = experiment: MTS assay, MDA-MB-231; format: cell-based, human; conditions: for cell metabolic activity down-regulated to (MTS): MDA-MB-231, 72 h, strongest effects
Protocol: as §1, §2

11β-HSD2 = target: T2, 11β-HSD2 (Homo sapiens, UniProt P80365); experiment: 11β-HSD2 inhibition assay (cortisol to cortisone, human kidney microsomes, cortisol ELISA); format: biochemical; conditions: at a concentration of 10 µM
T2 construct: human kidney microsomes were used as a source of the 11β‐HSD2 enzyme; tissue XenoTech Lot No. 1710160; host or cells: human kidney microsomes, mixed gender
T2 sequence (P80365 1-405): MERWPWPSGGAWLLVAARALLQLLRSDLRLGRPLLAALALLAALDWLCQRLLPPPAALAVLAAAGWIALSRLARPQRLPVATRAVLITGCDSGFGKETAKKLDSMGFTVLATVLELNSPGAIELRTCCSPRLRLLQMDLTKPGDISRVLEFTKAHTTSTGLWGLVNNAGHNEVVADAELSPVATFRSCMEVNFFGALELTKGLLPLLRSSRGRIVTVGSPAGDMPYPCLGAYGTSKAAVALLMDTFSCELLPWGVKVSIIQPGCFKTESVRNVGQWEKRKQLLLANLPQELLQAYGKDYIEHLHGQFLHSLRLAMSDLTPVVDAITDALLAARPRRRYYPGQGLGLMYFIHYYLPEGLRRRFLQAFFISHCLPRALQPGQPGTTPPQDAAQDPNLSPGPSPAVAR
Protocol: 11β-Hydroxysteroid dehydrogenase type 1 and type 2 inhibition assays were performed as previously described. For more details, see the Supplementary Materials. […]
as §3, §4, §5, §6, §7, §8, §9

Caco-2 cells [3] = experiment: Intracellular redox homeostasis (ROS, RNS, GSH), Caco-2; format: cell-based, human; conditions: Caco-2, 500 µM, 72 h
Protocol: as §1
(§10) Based on the MTS assay, a toxic concentration of 500 µM of each compound was selected for redox analysis for all cell lines. Cell lines were seeded at the standard density in 96-well black plates. […] The signal measurement was taken with a Synergy H1 microplate reader (BioTek Instruments, CA, USA).

SK-MEL-30 cells [4] = experiment: Intracellular redox homeostasis (ROS, RNS, GSH), SK-MEL-30; format: cell-based, human; conditions: SK-MEL-30, 500 µM, 72 h
Protocol: as §1, §10

BJ cells = experiment: Intracellular redox homeostasis (ROS, RNS, GSH), BJ; format: cell-based, human; conditions: 500 µM, 72 h
Protocol: as §1, §10

PANC-1 cells = experiment: MTS assay, PANC-1; format: cell-based, human; conditions: PANC-1, 72 h
Protocol: as §1, §2

T1 sequence (P28845 whole entry): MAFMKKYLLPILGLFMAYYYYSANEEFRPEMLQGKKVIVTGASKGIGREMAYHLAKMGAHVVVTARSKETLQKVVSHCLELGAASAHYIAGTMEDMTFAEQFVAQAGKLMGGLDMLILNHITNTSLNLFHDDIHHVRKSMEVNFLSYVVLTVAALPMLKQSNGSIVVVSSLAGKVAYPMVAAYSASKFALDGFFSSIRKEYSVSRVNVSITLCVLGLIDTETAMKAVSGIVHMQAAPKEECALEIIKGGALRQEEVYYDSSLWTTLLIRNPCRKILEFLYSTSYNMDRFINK

| SMILES | inhibition at 10 µM (11β-HSD1) [%] | IC50 (11β-HSD1) [µM] | inhibition at 10 µM (11β-HSD2) [%] | cell metabolic activity down-regulated to (MTS) (SK-MEL-30 cells [1]) | change of cell viability / metabolic activity (SK-MEL-30 cells [1]; SK-MEL-30, MTS, 72 h, 10–500 µM) | selectivity 11β-HSD1 versus 11β-HSD2 (11β-HSD1) | cell metabolic activity down-regulated to (MTS) (Caco-2 cells [2]) | concentration at which a decrease in cell viability is observed (Caco-2 cells [2]; Caco-2, MTS, 72 h) | change of cell viability / metabolic activity (Caco-2 cells [2]; Caco-2, MTS, 72 h, 10–500 µM) | highest increase in proliferation (metabolic activity, MTS) (U-118 MG cells) | cell metabolic activity down-regulated to (MTS) (MDA-MB-231 cells) | concentration at which a decrease in cell viability / metabolic activity is observed (MDA-MB-231 cells; MDA-MB-231, MTS, 72 h) [µM] | change of cell viability / metabolic activity (MDA-MB-231 cells; MDA-MB-231, MTS, 72 h, 10–500 µM) | ROS level (Caco-2 cells [3]) | ROS level (SK-MEL-30 cells [4]) | ROS level (BJ cells) | highest increase in proliferation (metabolic activity, MTS) (PANC-1 cells) |
| --- | --- | --- | --- | --- | --- | --- | --- | --- | --- | --- | --- | --- | --- | --- | --- | --- | --- |
| CCC1SC(NC2CCCCC2)=NC1=O (stereo not drawn) [Compound 3b, 2-(Cyclohexylamino)-5-ethylthiazol-4(5H)-one] | 68.5 ± 4.28 | 0.57 ± 0.06 | 38.3 ± 9.96 |  |  |  | 30–54% | above 200 µM |  |  | 30–54% |  |  | increase in ROS production | increase in ROS production |  |  |
| CC(C)C1SC(NC2CCCCC2)=NC1=O (stereo not drawn) [Compound 3d, 2-(Cyclohexylamino)-5-isopropylthiazol-4(5H)-one] | 90.4 ± 2.74 | 0.08 ± 0.015 | 47 ± 1.67 | 30–54% |  | greater selectivity than the standard compound |  | above 200 µM |  |  |  |  |  |  |  |  |  |
| CCCC1SC(NC2CCCCC2)=NC1=O (stereo not drawn) [Compound 3c, 2-(Cyclohexylamino)-5-propylthiazol-4(5H)-one] | 85.7 ± 4.43 | 0.4 ± 0.005 | 47.1 ± 0.82 | 30–54% |  |  |  |  |  |  | 30–54% |  |  |  |  |  |  |
| CC1SC(NC2CCCCC2)=NC1=O (stereo not drawn) [Compound 3a, 2-(Cyclohexylamino)-5-methylthiazol-4(5H)-one] | 27.5 ± 2.12 | > 10 | 42 ± 2.5 |  |  | greater inhibitory activity towards 11β-HSD2 than 11β-HSD1 |  | above 200 µM |  | 115–134% |  |  |  | increase in ROS production |  |  |  |

Further lines, with some results ahead:

| inhibition at 10 µM (11β-HSD1) [%] | IC50 (11β-HSD1) [µM] | inhibition at 10 µM (11β-HSD2) [%] | SMILES | cell metabolic activity down-regulated to (MTS) (SK-MEL-30 cells [1]) | change of cell viability / metabolic activity (SK-MEL-30 cells [1]; SK-MEL-30, MTS, 72 h, 10–500 µM) | selectivity 11β-HSD1 versus 11β-HSD2 (11β-HSD1) | cell metabolic activity down-regulated to (MTS) (Caco-2 cells [2]) | concentration at which a decrease in cell viability is observed (Caco-2 cells [2]; Caco-2, MTS, 72 h) | change of cell viability / metabolic activity (Caco-2 cells [2]; Caco-2, MTS, 72 h, 10–500 µM) | highest increase in proliferation (metabolic activity, MTS) (U-118 MG cells) | cell metabolic activity down-regulated to (MTS) (MDA-MB-231 cells) | concentration at which a decrease in cell viability / metabolic activity is observed (MDA-MB-231 cells; MDA-MB-231, MTS, 72 h) [µM] | change of cell viability / metabolic activity (MDA-MB-231 cells; MDA-MB-231, MTS, 72 h, 10–500 µM) | ROS level (Caco-2 cells [3]) | ROS level (SK-MEL-30 cells [4]) | ROS level (BJ cells) | highest increase in proliferation (metabolic activity, MTS) (PANC-1 cells) |
| --- | --- | --- | --- | --- | --- | --- | --- | --- | --- | --- | --- | --- | --- | --- | --- | --- | --- |
| 90.2 ± 1.59 | 0.07 ± 0.008 | 47.2 ± 1.17 | O=C1N=C(NC2CCCCC2)SC1c1ccc(Br)cc1 (stereo not drawn) [Compound 3g, 5-(4-Bromophenyl)-2-(cyclohexylamino)thiazol-4(5H)-one] | 30–54% | vigorous inhibitory activity | greater selectivity than the standard compound | 30–54% | 1 µM | vigorous inhibitory activity | 115–134% | 30–54% | 75 | vigorous inhibitory activity |  |  |  |  |
| 87.3 ± 0.99 | 0.09 ± 0.016 | 51 ± 0.73 | O=C1N=C(NC2CCCCC2)SC12CCC2 [Compound 3i, 6-(Cyclohexylamino)-5-thia-7-azaspiro [3.4]oct-6-en-8-one] |  |  |  | 30–54% | above 200 µM |  | 115–134% | 30–54% |  |  |  |  | increase in ROS |  |
| 94 ± 2.35 | 0.04 ± 0.004 | 45.6 ± 5.28 | O=C1N=C(NC2CCCCC2)SC12CCCCC2 [Compound 3h, 2-(Cyclohexylamino)-1-thia-3-azaspiro [4.5]dec-2-en-4-one] |  |  | greater selectivity than the standard compound; also recorded: better activity and selectivity than carbenoxolone | 30–54% |  |  |  | 30–54% |  |  |  |  | increase in ROS | 115–134% |
| 82.6 ± 1.79 | 0.3 ± 0.05 | 38.6 ± 5.56 | CC1(C)SC(NC2CCCCC2)=NC1=O [Compound 3e, 2-(Cyclohexylamino)-5,5-dimethylthiazol-4(5H)-one] |  |  |  | 30–54% | above 200 µM |  |  |  |  |  |  |  |  | 115–134% |
| 83.8 ± 4.53 | 0.17 ± 0.035 | 40 ± 8.34 | O=C1N=C(NC2CCCCC2)SC1c1ccccc1 (stereo not drawn) [Compound 3f, 2-(Cyclohexylamino)-5-phenylthiazol-4(5H)-one] | 30–54% |  |  |  |  |  |  |  |  |  |  |  |  | 115–134% |
